Results reported in patent US10328075B2, “Method of treatment and compounds for use therein” (Baker Heart and Diabetes Institute, priority 2015, dated 2019).
Like-named read-outs stand apart in the source and are kept apart here.

Molecular target: T1, hFPR2 (Homo sapiens, UniProt P25090)
T1 construct: expressed in transfected cells
T1 sequence (P25090 1-351): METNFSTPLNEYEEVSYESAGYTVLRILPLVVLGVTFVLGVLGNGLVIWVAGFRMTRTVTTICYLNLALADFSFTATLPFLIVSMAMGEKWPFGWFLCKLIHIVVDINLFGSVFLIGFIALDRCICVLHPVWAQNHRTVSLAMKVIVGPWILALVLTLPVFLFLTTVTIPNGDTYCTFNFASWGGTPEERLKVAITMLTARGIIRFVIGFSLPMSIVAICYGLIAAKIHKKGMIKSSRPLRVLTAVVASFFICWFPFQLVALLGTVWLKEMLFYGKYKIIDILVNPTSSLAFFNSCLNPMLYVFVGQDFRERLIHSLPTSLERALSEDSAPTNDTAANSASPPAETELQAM
Assay: ERK1/2 phosphorylation (AlphaScreen SureFire) in hFPR2-FlpIn-CHO cells
Assay type: cell-based
Conditions: for Time of maximal ERK1/2 phosphorylation in hFPR2-CHO cells: 10 μM, pilot timecourse; for EC50: read-out: pEC50, ERK1/2 phosphorylation, hFPR2-Flpln-CHO (converted); for ΔLog(τ/KA), ERK1/2 phosphorylation, hFPR2-Flpln-CHO: normalized transduction coefficient, reference agonist Cmpd43; for Log(τ/KA), ERK1/2 phosphorylation, hFPR2-Flpln-CHO: transduction coefficient
Source text: cDNDA construct and generation of stable cell lines: cDNA in pcDNA3.1^+ encoding the human formyl peptide receptors (FPR) subtypes, hFPR1, hFPR2 and hFPR3 was obtained from Invitrogen. The sequences for 3 hFPR receptors were amplified by PCR and cloned into the Gateway entry vector, pDONR202™, using the BP clonase enzyme mix, according to the manufactures' instructions (Invitrogen Inc, Carlsbad, Calif., USA). All hFPR receptors constructs in pDONR201™ were subsequently transfected into the pEF5/FRT/V5/dest vector using the LR clonase enzyme mix (Invitrogen). Receptor constructs (pEF5/FRT/V5/dest) were used to transfect FIp-In CHO cells as described previously (Valant C et al., PNAS, 2014). Cells were selected using 500 μg/mL hydromycin to generate cell lines stably expressing each receptor construct. Cells were maintained and cultured in high glucose DMEM supplemented with 10% FBS, 16 mM HEPES and 500 μg/mL hydromycin at 37° C. under a humidified atmosphere containing 5% CO2.
In the various assays described below, cells were plated into 96-well transparent cell culture plates at 4×10^4 cells per well, cultured overnight in serum-free media at 37° C. in 5% CO2.
Measurement of extracellular signal regulated kinase 1 and 2 phosphorylation (pERK1/2): Initial ERK1/2 phosphorylation at Thr202/Tyr204 time-course experiments were performed to determine the time at which ERK1/2 phosphorylation was maximal after stimulation by each agonist. Cells were seeded onto transparent 96-well cell culture plates at 4×10^4 cells per well. After 6 h, cells were washed once with PBS, and then incubated in serum-free DMEM overnight, to allow FBS-stimulated phosphorylated ERK1/2 levels to subside. […] 10% (v/v) FBS was used as a positive control, with vehicle controls also included. The reaction was terminated by removal of study drugs and lysis of cells with 100 μL of SureFire lysis buffer (TGR Biosciences). Cell were lysed in SureFire lysis buffer and transferred to 384-well opaque proxiplates. Under low-light conditions, a 1:120 (v:v) dilution of AlphaScreen beads (both acceptor and donor):Surefire reaction buffer was prepared, which was mixed with the activation buffer in a ratio of 6:1 (v:v), respectively. Plates were incubated in the dark at 37° C. for 1 h before the fluorescence signal was measured by a Fusion-α plate reader (PerkinElmer Life and Analytical Sciences, Foster city, CA, USA) with standard AlphaScreen settings. Data were normalized to the maximal response elicited by 10% (v/v) FBS at the same time point.
Receptor mediated pERK1/2 levels were determined using the AlphaScreen™ ERK1/2 SureFire™ kit, as described previously (Keov, P et al., 2014). For all experiments, 10% FBS was used as internal positive control to stimulate pERK1/2, and which the maximum responses were used for normalization of data, whilst vehicle was used as negative control.
Data analysis: All data were analysed using GraphPad Prism 6.0 (GraphPad Software, San Deigo, Calif., USA). Where appropriate, concentration-response curves were fitted to derive the maximal agonist effect (Emax), and the ligand potency estimate (pEC50), where Emax is the maximal possible response of the system (not the agonist), basal is the basal level of response in the absence of agonist, and pEC50 is the negative logarithm of the agonist concentration that gives a response halfway between Emax and basal.
In the present study, FIp-IN CHO cells and Gateway plasmid were obtained from Invitrogen Inc (Carlsbad, Calif., USA). The sequences for all 3 known human FPRs (hFPR1, hFPR2 and hFPR3) were amplified by PCR and cloned into the Gateway entry vector, pDONR202TM, using the BP clonase enzyme mix, according to the manufacturers' instructions. The hFPR pDONR201TM constructs were subsequently transfected into the pEF5/FRT/V5/dest vector using the LR clonase enzyme mix (Invitrogen).

[1] = Table 2, percentage of ERK1/2 phosphorylation elicited by 10% FBS, read-out: Emax (%), ERK1/2 phosphorylation, hFPR2-Flpln-CHO
[2] = Table 8, percent of response elicited by 10% FBS, read-out: Emax, ERK1/2 phosphorylation, hFPR2-Flpln-CHO

CC(C)C1C(NC(=O)Nc2ccc(Cl)cc2)C(=O)N(c2ccccc2)N1C (stereo not drawn) [BIDI-002]
Time of maximal ERK1/2 phosphorylation in hFPR2-CHO cells: 5 min
Emax [1]: 95 ± 4%
EC50 (Table 2): 55 nM
ΔLog(τ/KA), ERK1/2 phosphorylation, hFPR2-Flpln-CHO (Table 8): 0.0
Emax [2]: 95 ± 4%
EC50 (Table 8): 50.1 nM
Log(τ/KA), ERK1/2 phosphorylation, hFPR2-Flpln-CHO (Table 8): 7.7 ± 0.2

CSCC[C@H](NC=O)C(=O)N[C@@H](CC(C)C)C(=O)N[C@@H](Cc1ccccc1)C(=O)O [fMLP, N-formyl-Met-Leu-Phe]
Time of maximal ERK1/2 phosphorylation in hFPR2-CHO cells: 5 min
Emax [1]: 68 ± 11%
ΔLog(τ/KA), ERK1/2 phosphorylation, hFPR2-Flpln-CHO (Table 8): −2.3 ± 0.2
Emax [2]: 68 ± 11%
Log(τ/KA), ERK1/2 phosphorylation, hFPR2-Flpln-CHO (Table 8): 5.4 ± 0.1
